Measurements published in paper PMC7555119, “Characterization of Novel Synthetic Polyphenols: Validation of Antioxidant and Vasculoprotective Activities” (Antioxidants, 2020).
Like-named read-outs stand apart in the source and are kept apart here.

How the values were obtained:
[1] = test system: NADPH oxidase activity in segments of aorta from C57BL6/J mice; assay: NADPH oxidase activity in aortic segments stimulated ex vivo with IL-1β; details: IL-1β 10 ng/mL 6 h
Experimental: Aortic segments from three-month-old C57BL6/J mice were incubated with IL-1β (10 ng/mL, 6 h, Sigma Aldrich) in the presence and in the absence of the different compounds that were added 30 min before stimulation.
The O2 production generated by NADPH oxidase was determined by a chemiluminescence assay. Briefly, endothelial cells or aortic segments were homogenized in phosphate buffer (50 mmol/L KH2PO4, 1 mmol/L EGTA, 150 mmol/L sucrose, pH 7.4). The reaction was started by the addition of a lucigenin (5 μmol/L) and NADPH (100 μmol/L; Sigma-Aldrich) mixture to the protein sample in a final volume of 250 μL. Chemiluminescence was determined every 2.4 s for 3 min in a microtiter plate luminometer (Enspire Perkin Elmer). Basal activity in the absence of NADPH was subtracted from each reading and normalized to protein concentration. Data were normalized vs. control situation.

[2] = Oxygen radical absorbance capacity (ORAC) assay
Experimental: The ORAC assay was performed following Ou et al., as modified by Garcés-Rimón et al.. All samples and reagents were dissolved in phosphate buffer (75 mM; pH 7.4). […] The fluorescence was recorded at 40 °C every 55 s for 95 min using a fluorimeter (SpectraMax M2; Molecular Devices, California, USA), with excitation and emission wavelengths of 480 and 520 nm, respectively. All samples were tested in triplicate. ORAC values were expressed as μmol of Trolox equivalents (TE)/μmol of pure compound.

Structure (SMILES): O=C(Nc1ccc(O)cc1)N(c1ccc(O)cc1)c1ccc(O)cc1 [Compound 17, N,N-bis(4-Hydroxyphenyl)-N′-(4′-hydroxyphenyl)urea]
- effect on NADPH oxidase activity induced by IL-1β [1]: significant inhibition of the IL-1β effects
- ORAC [2]: 19.4 ± 0.7 µmol of trolox/µmol of pure compound
- ORAC ([2]; TE: Trolox Equivalents): > 19 TE
